{"source": "patent US20110172163A1", "about": "“Novel Protease Inhibitors” (QUEENSLAND UNIVERSITY OF TECHNOLOGY, priority 2008, published 2011)", "key": {"[1]": {"details": "comparison value, source not given; cited from earlier work"}, "KLK4": {"target": "KLK4 (Homo sapiens, UniProt Q9Y5K2)", "sequence (Q9Y5K2 31-254)": "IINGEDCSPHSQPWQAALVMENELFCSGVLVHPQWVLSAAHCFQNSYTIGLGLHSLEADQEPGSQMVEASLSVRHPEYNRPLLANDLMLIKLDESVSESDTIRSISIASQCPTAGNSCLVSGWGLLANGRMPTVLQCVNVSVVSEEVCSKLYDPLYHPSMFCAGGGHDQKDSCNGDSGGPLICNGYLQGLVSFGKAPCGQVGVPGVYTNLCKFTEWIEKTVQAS", "assay": "Kinetic studies of para-nitroanilide substrates with KLK4", "format": "biochemical", "design": "pro-region of PSA (KLK3), replacing the native KLK4 pro-region (only if the E. coli preparation was used) (N, cleaved yes); made in house", "details": "relative to the parent substrate (Bz-FVR-pNA or FVQR-pNA)", "procedure": "Human recombinant KLK4 was expressed in E. coli using a previously described chimeric KLK4 plasmid construct where the native pro-region was replaced with the pro-region of PSA, enabling autoactivation. Protein was expressed as inclusion bodies which were isolated and solubilised as described previously to yield 90% pure KLK4. Protein refolding was performed by dilution into 100 volumes of refolding buffer I (2 M urea, 0.1M NaCl, 5 mM GSH, 0.5 mM GSSG, 10 mM benzamidine, 50 mM tris HCl pH 8.0, 2 mM CaCl2) over 44 hours before further dilution into 3 volumes refolding buffer II (refolding buffer I with 0.5 M urea 0.5 mM GSH, 0.05 mM GSSG, 2 mM CaCl2) over another 24 hours. Dialysis was performed as previously described (with additional 2 mM CaCl2 to reduce aggregation) before concentration using UNO sphere Q (Biorad) eluting with tris buffered saline (pH 7.5)/2 mM CaCl2. […]\nKinetic Studies Active site titration was carried out according to Beynon et al., replacing α1-proteinase inhibitor with soybean trypsin inhibitor. Enzymatic activity assays were performed with 4.9 nM KLK4 and substrate concentrations in the range of 0-600 μM in 300 μL of assay buffer with hydrolysis monitored over 5 minutes as described for the substrate screen. […]"}}, "note": "Peptide text beside a SMILES is read from it. * marks the point of attachment. pNA = O=[N+]([O-])c1ccc(N*)cc1", "data": [{"molecule": "CC(C)c1nc(CN(C)C(=O)N[C@H](C(=O)N[C@@H](Cc2ccccc2)C[C@H](O)[C@H](Cc2ccccc2)NC(=O)OCc2cncs2)C(C)C)cs1", "note": "[ritonavir]", "values": [{"measurement": "half life", "setting": "[1]", "value": 3.8, "unit": "h"}]}, {"molecule": "CC(=O)N[C@@H](Cc1ccccc1)C(=O)N[C@H](C(=O)N[C@@H](CCCNC(=N)N)C(=O)Nc1ccc([N+](=O)[O-])cc1)C(C)C", "note": "[Ac-FVR-pNA] (Ac-Phe-Val-Arg-pNA)", "values": [{"measurement": "reduction of kcat", "setting": "KLK4", "value": 47, "unit": "%"}]}]}
